Laboratory results: the NIST ThermoML archive (doi:10.1021/je300945r)
± gives the expanded uncertainty stated by the source.

F/C=C/C(F)(F)F [trans-1,3,3,3-tetrafluoropropene]
Details	mass density [kg/m3]
242.91 K, 56.6 kPa, Gas, isochoric method	3.322 ± 0.11
242.91 K, 56.7 kPa, Gas, isochoric method	3.322 ± 0.11
252.89 K, 59.4 kPa, Gas, isochoric method	3.322 ± 0.11
252.9 K, 59.4 kPa, Gas, isochoric method	3.322 ± 0.11
262.9 K, 62 kPa, Gas, isochoric method	3.311 ± 0.11
262.91 K, 61.9 kPa, Gas, isochoric method	3.311 ± 0.11
262.94 K, 139.4 kPa, Gas, isochoric method	7.692 ± 0.11
262.95 K, 139.4 kPa, Gas, isochoric method	7.692 ± 0.11
272.84 K, 64.4 kPa, Gas, isochoric method	3.311 ± 0.11
272.85 K, 64.4 kPa, Gas, isochoric method	3.311 ± 0.11
272.87 K, 145.5 kPa, Gas, isochoric method	7.634 ± 0.11
282.6 K, 151.4 kPa, Gas, isochoric method	7.634 ± 0.11
282.63 K, 66.9 kPa, Gas, isochoric method	3.311 ± 0.1
282.66 K, 238.8 kPa, Gas, isochoric method	12.5 ± 0.11
283.14 K, 1620 kPa, Liquid, Vibrating tube method	1214.3 ± 1.6
283.14 K, 2638 kPa, Liquid, Vibrating tube method	1218.5 ± 1.6
283.14 K, 3662 kPa, Liquid, Vibrating tube method	1222.4 ± 1.6
283.14 K, 5710 kPa, Liquid, Vibrating tube method	1229.8 ± 1.6
283.14 K, 6721 kPa, Liquid, Vibrating tube method	1233.2 ± 1.6
283.14 K, 7725 kPa, Liquid, Vibrating tube method	1236.6 ± 1.6
283.14 K, 11789 kPa, Liquid, Vibrating tube method	1249.5 ± 1.6
283.14 K, 12805 kPa, Liquid, Vibrating tube method	1252.4 ± 1.6
283.14 K, 15859 kPa, Liquid, Vibrating tube method	1261.2 ± 1.7
283.14 K, 16870 kPa, Liquid, Vibrating tube method	1263.9 ± 1.7
283.14 K, 18876 kPa, Liquid, Vibrating tube method	1269.4 ± 1.7
283.14 K, 20909 kPa, Liquid, Vibrating tube method	1274.5 ± 1.7
283.15 K, 619 kPa, Liquid, Vibrating tube method	1210.5 ± 1.6
283.15 K, 4689 kPa, Liquid, Vibrating tube method	1226.1 ± 1.6
283.15 K, 8745 kPa, Liquid, Vibrating tube method	1240 ± 1.6
283.15 K, 9760 kPa, Liquid, Vibrating tube method	1243.2 ± 1.6
283.15 K, 10765 kPa, Liquid, Vibrating tube method	1246.5 ± 1.6
283.15 K, 13827 kPa, Liquid, Vibrating tube method	1255.7 ± 1.7
283.15 K, 14841 kPa, Liquid, Vibrating tube method	1258.4 ± 1.7
283.15 K, 17875 kPa, Liquid, Vibrating tube method	1266.7 ± 1.7
283.15 K, 19891 kPa, Liquid, Vibrating tube method	1272 ± 1.7
283.15 K, 21921 kPa, Liquid, Vibrating tube method	1277.1 ± 1.7
283.15 K, 22932 kPa, Liquid, Vibrating tube method	1279.6 ± 1.7
283.15 K, 23948 kPa, Liquid, Vibrating tube method	1281.9 ± 1.7
283.15 K, 24959 kPa, Liquid, Vibrating tube method	1284.4 ± 1.7
283.15 K, 25966 kPa, Liquid, Vibrating tube method	1286.7 ± 1.7
283.15 K, 26982 kPa, Liquid, Vibrating tube method	1289.1 ± 1.7
283.15 K, 27984 kPa, Liquid, Vibrating tube method	1291.3 ± 1.7
283.15 K, 28987 kPa, Liquid, Vibrating tube method	1293.4 ± 1.7
283.15 K, 30001 kPa, Liquid, Vibrating tube method	1295.7 ± 1.7
283.15 K, 31009 kPa, Liquid, Vibrating tube method	1297.8 ± 1.7
283.15 K, 32017 kPa, Liquid, Vibrating tube method	1300.1 ± 1.7
283.15 K, 33020 kPa, Liquid, Vibrating tube method	1302.1 ± 1.7
283.15 K, 34022 kPa, Liquid, Vibrating tube method	1304.2 ± 1.7
292.54 K, 157.2 kPa, Gas, isochoric method	7.634 ± 0.1
292.56 K, 248.7 kPa, Gas, isochoric method	12.5 ± 0.11
292.56 K, 248.8 kPa, Gas, isochoric method	12.5 ± 0.11
292.76 K, 366.1 kPa, Gas, isochoric method	19.231 ± 0.12
292.83 K, 415.4 kPa, Gas, isochoric method	22.222 ± 0.12
293.14 K, 778 kPa, Liquid, Vibrating tube method	1179.9 ± 1.6
293.14 K, 1644 kPa, Liquid, Vibrating tube method	1184.2 ± 1.6
293.14 K, 2650 kPa, Liquid, Vibrating tube method	1188.7 ± 1.6
293.14 K, 4727 kPa, Liquid, Vibrating tube method	1197.6 ± 1.6
293.14 K, 5738 kPa, Liquid, Vibrating tube method	1201.8 ± 1.6
293.14 K, 6755 kPa, Liquid, Vibrating tube method	1205.9 ± 1.6
293.14 K, 7761 kPa, Liquid, Vibrating tube method	1209.7 ± 1.6
293.14 K, 8772 kPa, Liquid, Vibrating tube method	1213.4 ± 1.6
293.14 K, 10798 kPa, Liquid, Vibrating tube method	1220.7 ± 1.6
293.14 K, 12817 kPa, Liquid, Vibrating tube method	1227.5 ± 1.6
293.14 K, 13830 kPa, Liquid, Vibrating tube method	1230.8 ± 1.6
293.14 K, 15838 kPa, Liquid, Vibrating tube method	1236.9 ± 1.6
293.14 K, 16853 kPa, Liquid, Vibrating tube method	1240.1 ± 1.7
293.14 K, 17857 kPa, Liquid, Vibrating tube method	1243 ± 1.7
293.14 K, 20900 kPa, Liquid, Vibrating tube method	1251.6 ± 1.7
293.14 K, 21921 kPa, Liquid, Vibrating tube method	1254.3 ± 1.7
293.14 K, 22938 kPa, Liquid, Vibrating tube method	1257.2 ± 1.7
293.14 K, 23953 kPa, Liquid, Vibrating tube method	1259.7 ± 1.7
293.14 K, 24957 kPa, Liquid, Vibrating tube method	1262.3 ± 1.7
293.14 K, 31009 kPa, Liquid, Vibrating tube method	1277.1 ± 1.7
293.14 K, 32027 kPa, Liquid, Vibrating tube method	1279.3 ± 1.7
293.15 K, 69.4 kPa, Gas, isochoric method	3.311 ± 0.099
293.15 K, 3682 kPa, Liquid, Vibrating tube method	1193.3 ± 1.6
293.15 K, 9788 kPa, Liquid, Vibrating tube method	1217.1 ± 1.6
293.15 K, 11799 kPa, Liquid, Vibrating tube method	1223.9 ± 1.6
293.15 K, 14835 kPa, Liquid, Vibrating tube method	1233.8 ± 1.6
293.15 K, 18879 kPa, Liquid, Vibrating tube method	1246.2 ± 1.7
293.15 K, 19891 kPa, Liquid, Vibrating tube method	1248.9 ± 1.7
293.15 K, 25973 kPa, Liquid, Vibrating tube method	1264.9 ± 1.7
293.15 K, 26985 kPa, Liquid, Vibrating tube method	1267.4 ± 1.7
293.15 K, 27991 kPa, Liquid, Vibrating tube method	1270 ± 1.7
293.15 K, 28993 kPa, Liquid, Vibrating tube method	1272.4 ± 1.7
293.15 K, 30001 kPa, Liquid, Vibrating tube method	1274.8 ± 1.7
293.15 K, 33027 kPa, Liquid, Vibrating tube method	1281.7 ± 1.7
293.15 K, 34035 kPa, Liquid, Vibrating tube method	1284 ± 1.7
293.16 K, 69.4 kPa, Gas, isochoric method	3.311 ± 0.099
302.54 K, 258.5 kPa, Gas, isochoric method	12.5 ± 0.11
302.54 K, 258.6 kPa, Gas, isochoric method	12.5 ± 0.11
302.67 K, 71.8 kPa, Gas, isochoric method	3.311 ± 0.096
302.67 K, 162.7 kPa, Gas, isochoric method	7.634 ± 0.099
302.69 K, 162.7 kPa, Gas, isochoric method	7.634 ± 0.099
302.78 K, 381.8 kPa, Gas, isochoric method	19.231 ± 0.11
